Measured values from PubChem BioAssay AID1918949 (Molecular Pharmacology Branch, DTP, NCI, 2023).

System: K24384-001-R-PDC complex spheroid viability
Experiment: Anticancer human tumor K24384-001-R-PDC patient-derived pancreatic adenocarcinoma cell line growth inhibition
Conditions: for IC50: curve of first compound; for viability, T/C: stronger effect = lower value
How it was run: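 Multicellular complex spheroids of tumor cells with human endothelial cells (HUVEC) and mesenchymal stem cells; the LSD1 inhibitor iadademstat was combined with standard-of-care or investigational agents. Top concentration at or near clinical Cmax, half-log dilutions; final DMSO ≤0.25%.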
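Further: spheroids exposed to agents for seven days before luminescence viability reading.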
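Wherever viability, T/C is given: 100% = DMSO vehicle control viability.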

Molecule Cn1ncnc1C1c2n[nH]c(=O)c3cc(F)cc(c23)NC1c1ccc(F)cc1 (stereo not given) + NC1CCC(NC2CC2c2ccccc2)CC1 has an IC50 (second compound 0.1 µM) greater than 100 nM, an IC50 (second compound 0.316 µM) greater than 100 nM and an IC50 (second compound 1 µM) greater than 100 nM. For the same molecule, the IC50 (second compound 3.16 µM) was greater than 100 nM, the IC50 (second compound 10 µM) was greater than 100 nM and the viability, T/C (second compound 0.1 µM, first compound 0.000316 µM) was 92.4%. The viability, T/C (second compound 0.1 µM, first compound 0.001 µM) was 115%, the viability, T/C (second compound 0.1 µM, first compound 0.00316 µM) was 81.7% and the viability, T/C (second compound 0.1 µM, first compound 0.01 µM) was 88.6%. It also gave a viability, T/C (second compound 0.1 µM, first compound 0.0316 µM) of 80%, a viability, T/C (second compound 0.1 µM, first compound 0.1 µM) of 73.7% and a viability, T/C (second compound 0.316 µM, first compound 0.000316 µM) of 96.5%. For the same molecule, the viability, T/C (second compound 0.316 µM, first compound 0.001 µM) was 92.8%, the viability, T/C (second compound 0.316 µM, first compound 0.00316 µM) was 104% and the viability, T/C (second compound 0.316 µM, first compound 0.01 µM) was 93.5%. For the same molecule, the viability, T/C (second compound 0.316 µM, first compound 0.0316 µM) was 104%, the viability, T/C (second compound 0.316 µM, first compound 0.1 µM) was 72.4% and the viability, T/C (second compound 1 µM, first compound 0.000316 µM) was 104%. The viability, T/C (second compound 1 µM, first compound 0.001 µM) was 100%, the viability, T/C (second compound 1 µM, first compound 0.00316 µM) was 89.5% and the viability, T/C (second compound 1 µM, first compound 0.01 µM) was 88.7%. The viability, T/C (second compound 1 µM, first compound 0.0316 µM) was 84.8%, the viability, T/C (second compound 1 µM, first compound 0.1 µM) was 70.2% and the viability, T/C (second compound 3.16 µM, first compound 0.000316 µM) was 92.9%. For the same molecule, the viability, T/C (second compound 3.16 µM, first compound 0.001 µM) was 95.2%, the viability, T/C (second compound 3.16 µM, first compound 0.00316 µM) was 94.6% and the viability, T/C (second compound 3.16 µM, first compound 0.01 µM) was 98.5%. It also gave a viability, T/C (second compound 3.16 µM, first compound 0.0316 µM) of 98.6%, a viability, T/C (second compound 3.16 µM, first compound 0.1 µM) of 82.1% and a viability, T/C (second compound 10 µM, first compound 0.000316 µM) of 85.6%. The viability, T/C (second compound 10 µM, first compound 0.001 µM) was 105%, the viability, T/C (second compound 10 µM, first compound 0.00316 µM) was 94.7% and the viability, T/C (second compound 10 µM, first compound 0.01 µM) was 103%. The viability, T/C (second compound 10 µM, first compound 0.0316 µM) was 83.1% and the viability, T/C (second compound 10 µM, first compound 0.1 µM) was 91.6%.
CCN(c1cc(-c2ccc(CN3CCOCC3)cc2)cc(C(=O)NCc2c(C)cc(C)[nH]c2=O)c1C)C1CCOCC1 + NC1CC1c1ccc(-c2cccc(O)c2)cc1 showed an IC50 (second compound 0.1 µM) greater than 3000 nM, an IC50 (second compound 0.316 µM) greater than 3000 nM and an IC50 (second compound 1 µM) greater than 3000 nM. For the same molecule, the IC50 (second compound 3.16 µM) was greater than 3000 nM, the IC50 (second compound 10 µM) was greater than 3000 nM and the viability, T/C (second compound 0.1 µM, first compound 0.00949 µM) was 113%. For the same molecule, the viability, T/C (second compound 0.1 µM, first compound 0.03 µM) was 115%, the viability, T/C (second compound 0.1 µM, first compound 0.0949 µM) was 102% and the viability, T/C (second compound 0.1 µM, first compound 0.3 µM) was 103%. For the same molecule, the viability, T/C (second compound 0.1 µM, first compound 0.949 µM) was 98.9%, the viability, T/C (second compound 0.1 µM, first compound 3 µM) was 62.8% and the viability, T/C (second compound 0.316 µM, first compound 0.00949 µM) was 113%. For the same molecule, the viability, T/C (second compound 0.316 µM, first compound 0.03 µM) was 104%, the viability, T/C (second compound 0.316 µM, first compound 0.0949 µM) was 118% and the viability, T/C (second compound 0.316 µM, first compound 0.3 µM) was 103%. The viability, T/C (second compound 0.316 µM, first compound 0.949 µM) was 94.2%, the viability, T/C (second compound 0.316 µM, first compound 3 µM) was 71.8% and the viability, T/C (second compound 1 µM, first compound 0.00949 µM) was 100%. The viability, T/C (second compound 1 µM, first compound 0.03 µM) was 112%, the viability, T/C (second compound 1 µM, first compound 0.0949 µM) was 107% and the viability, T/C (second compound 1 µM, first compound 0.3 µM) was 95.8%. For the same molecule, the viability, T/C (second compound 1 µM, first compound 0.949 µM) was 96.7%, the viability, T/C (second compound 1 µM, first compound 3 µM) was 65.5% and the viability, T/C (second compound 3.16 µM, first compound 0.00949 µM) was 109%. For the same molecule, the viability, T/C (second compound 3.16 µM, first compound 0.03 µM) was 126%, the viability, T/C (second compound 3.16 µM, first compound 0.0949 µM) was 108% and the viability, T/C (second compound 3.16 µM, first compound 0.3 µM) was 111%. It also gave a viability, T/C (second compound 3.16 µM, first compound 0.949 µM) of 96.2%, a viability, T/C (second compound 3.16 µM, first compound 3 µM) of 69.7% and a viability, T/C (second compound 10 µM, first compound 0.00949 µM) of 127%. The viability, T/C (second compound 10 µM, first compound 0.03 µM) was 132%, the viability, T/C (second compound 10 µM, first compound 0.0949 µM) was 109% and the viability, T/C (second compound 10 µM, first compound 0.3 µM) was 127%. For the same molecule, the viability, T/C (second compound 10 µM, first compound 0.949 µM) was 104% and the viability, T/C (second compound 10 µM, first compound 3 µM) was 77.6%.
